{"source": "patent US7439071B2", "about": "“Method of employing elevation of marinobufagenin in determining the presence of preeclampsia and related apparatus” (The Administrators of the Tulane Educational Fund, priority 2003, dated 2008)", "test_system": "vessels from preeclamptic rats / normal pregnant rats", "assay": "Perfusion of individual vessels dissected from rat models of preeclampsia and from normal pregnant rats with marinobufagenin", "description": "It is elevated substantially more in preeclamptic rats."}
{"smiles": "C[C@]12CC[C@H](O)C[C@@]1(O)CC[C@@H]1[C@@H]2CC[C@]2(C)[C@@H](c3ccc(=O)oc3)C[C@H]3O[C@]132", "note": "[marinobufagenin]", "values": [{"measurement": "constriction of perfused vessels", "setting": "vessels from normal pregnant animals or rats perfused with marinobufagenin", "value": "do not constrict"}, {"measurement": "constriction of perfused vessels as compared with the controlled circumstance (average)", "setting": "vessels from preeclamptic rats perfused with marinobufagenin", "value": "about 36%"}]}
